For test [1], the target named is T1, human p75^NTR receptor (Homo sapiens, UniProt P08138).
T1 construct: the whole form of the human p75^NTR receptor; expressed in transfected cells; the soluble AP fusion comes from the supernatant of transiently transfected HEK293 cells
T1 sequence (P08138 29-427): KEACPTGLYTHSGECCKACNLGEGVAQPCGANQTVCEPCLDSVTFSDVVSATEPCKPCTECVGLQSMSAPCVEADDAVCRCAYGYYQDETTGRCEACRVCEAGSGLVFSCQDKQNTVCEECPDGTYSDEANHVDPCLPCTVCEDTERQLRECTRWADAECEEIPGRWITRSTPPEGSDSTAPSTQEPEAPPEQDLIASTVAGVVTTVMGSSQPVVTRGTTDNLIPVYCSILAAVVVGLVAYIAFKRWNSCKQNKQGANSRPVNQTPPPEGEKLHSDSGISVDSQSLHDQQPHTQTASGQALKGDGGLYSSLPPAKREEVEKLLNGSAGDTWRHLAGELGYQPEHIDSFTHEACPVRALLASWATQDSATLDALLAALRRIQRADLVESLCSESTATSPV
As to the kind of experiment: Dimerization of the p75NTR receptor independently of its ligand (soluble p75NTR-alkaline phosphatase binding to SK-N-BE Bep 75 cells). Conditions: soluble p75NTR-alkaline phosphatase 10 nM, 1 h preincubation at 37° C. The class given is cell-based. On the procedure:
(§1) The SK-N-BE parent strain (human neuroblastoma) and the Bep 75 clone, stably expressing the whole form of the human p75^NTR receptor (SK-N-BE Bep 75) are cultured conventionally in an RPMI culture medium containing FCS (5%), sodium pyruvate (1 mM) and glutamine (4 mM). For the SK-N-BE Bep 75 cells, hygromycin ([…] of medium) is added as selection agent.
Study of the dimerization of the p75^NTR receptor independently of its ligand.
The p75^NTR receptor dimerization study is carried out on a cell suspension of the SK-N-BE Bep 75 strain. The cells (2.5×10^4 cells/well) are placed in wells (96-well plate) for 24 h, and then preincubated for 1 h at 37° C. in the presence or absence of the compounds according to the invention. Supernatant is then added, this supernatant being derived from the culture of HEK293 human cells of renal origin expressing, after 48 h of transfection, and secreting a soluble form of the p75^NTR receptor (extracellular part of the receptor) coupled to an alkaline phosphatase, at the final concentration of 10 nM. The quantification of the specific binding of the soluble p75^NTR receptor to the receptor present on SK-N-BE Bep 75 cells is determined by measuring the alkaline phosphatase enzyme activity after incubation of the cells for 1 hour at 37° C. in the presence of the supernatant. After filtration and transfer of the filters into 24-well plates, the alkaline phosphatase activity is determined by adding CDP-Star chemiluminescent substrate (ready-to-use, Roche). The concentrations inhibiting 50% (Cl50) of the dimerization of the p75^NTR receptor, of the compounds according to the invention, are low and range from 10^−6 to 10^−11M.

The test system of test [2] is human neuroblastoma strains SH-SY-5Y and SK-N-BE Bep 75. As to the kind of experiment: Measurement of NGF-induced apoptosis (cell death detection ELISA). The class given is cell-based. Conditions: SH-SY5Y, NGF 10 ng/ml, 48 h (SH-SY-5Y) or 24 h (SK-N-BE Bep 75), read-out: IC50 of inhibitory activity on NGF-induced apoptosis. On the procedure: The SH-SY-5Y strain (human neuroblastoma) is cultured conventionally in a DMEM culture medium (Dulbecco's Modified Eagle's Medium) (Gibco BRL, France) containing FCS (5%) (foetal calf serum) (Boehringer Mannheim, Germany), sodium pyruvate (1 mM) and glutamine (4 mM) in culture flasks coated with collagen (Becton Dickinson, France).
as §1
The cells (human neuroblastoma strains SH-SY-5Y and SK-N-BE Bep 75) are placed in 35 mm diameter Petri dishes (Biocoat collagen I, (10^5 cells/well)) in an appropriate culture medium containing 5% of FCS, for 24 h. […] The degrees of apoptosis are measured 48 hours after the treatments in the case of the SH-SY-5Y strain, and 24 hours after in the case of the SK-N-BE Bep 75 strain, by quantification of the DNA fragment-associated cytoplasmic histones (cell death detection ELISA, Boehringer Mannheim, Germany). The degrees of apoptosis are expressed as amount of oligonucleosomes/10^5 cells. […]
A general note: ELISA stands for enzyme-linked immunosorbent assay.

This is an account of results in patent US8580790B2, “(Heterocycle/condensed piperidine)-(piperazinyl)-1-alkanone or (heterocycle/condensed pyrrolidine)-(piperazinyl)-1-alkanone derivatives and use thereof as p75 inhibitors” (Sanofi, priority 2009, dated 2013).

As for `C[C@@H]1CN(c2ccc(C(F)(F)F)cn2)C[C@H](C)N1CC(=O)N1CCc2nc(-c3ccccc3)sc2C1` [compound 9, 2-[(2S,6R)-2,6-dimethyl-4-(5-trifluoromethylpyridin-2-yl)piperazin-1-yl]-1-(2-phenyl-6,7-dihydro-4H-thiazolo[5,4-c]pyridin-5-yl)ethanone], the values for the half-inhibitory concentration (IC50) in test [1] and in test [2] were 0.73 nM and 0.72 nM, respectively.

Take `O=C(CN1CCN(c2ccc(C(F)(F)F)cn2)C(=O)C1)N1CCc2nc(-c3ccccc3)sc2C1` [compound 11, 4-[2-oxo-2-(2-phenyl-6,7-dihydro-4H-thiazolo[5,4-c]pyridin-5-yl)ethyl]-1-(5-trifluoromethylpyridin-2-yl)piperazin-2-one]: the IC50 in test [1] came to 1.9 nM; in test [2], 4.46 nM.

For orientation: IC50 means the concentration at which inhibition is half-maximal.
